Patent US7923248B2, “Methods for producing microspore derived doubled haploid apiaceae” (NRC, priority 2005, dated 2011)

System: isolated microspores of vegetable fennel (VF-2)
Experiment: Isolated microspore culture of fennel with EBR in the medium (embryo formation)
Assay type: cell-based, fennel (Foeniculum vulgare)
Conditions: FIG. 5
Description: FIG. 5. Effect of 24-Epibrassinolide on microspore embryogenesis of vegetable fennel (VF-2). A=NLN-25; B=NLN-25+0.1 mM EBR; C=NLN-25+1.0 mM EBR; D=NLN-25 changed to NLN-10; E=NLN-25+0.1 mM EBR changed to NLN-10; and F=NLN-25+1.0 mM EBR changed to NLN-10.
Several basal media were compared for fennel microspore embryogenesis. Donor plants for microspore culture were grown as described herein. Flower buds were measured and buds in the range of 1-3 mm were put into Lipshaw baskets. The Lipshaw baskets were immersed for one minute in 70% ethanol in a sterile beaker and placed on a shaker. After one minute, the ethanol was removed and the baskets containing the buds were rinsed with sterile water. The Lipshaw baskets were immersed for 15 min in 6% sodium hypochlorite in a sterile beaker placed on a shaker. After 15 min, the sodium hypochlorite was removed by three 5-min washes with sterile water. The buds were removed from the Lipshaw baskets with sterile forceps and placed in a mortar with 5 mL of half-strength Gamborg B5 medium with 13% sucrose. The buds were gently crushed with a pestle, and the resulting suspension was filtered through a 44 μm nylon screen cloth into a 50 mL sterile centrifuge tube. The mortar and filter were rinsed three times with 5 mL of half-strength B5-13 which was filtered and added to the suspension to a total of 20 mL. […]

Q: How did the “fennel embryo formation (microspore embryogenesis)” value (continued exposure to EBR, NLN-25 medium, 32° C. for 3 days then 24° C.) turn out when `CC(C)[C@@H](C)[C@@H](O)[C@H](O)[C@@H](C)[C@H]1CC[C@H]2[C@@H]3COC(=O)[C@H]4C[C@H](O)[C@H](O)C[C@]4(C)[C@H]3CC[C@]12C` [24 EBR, 24-epibrassinolide] was run?
A: somewhat inhibitory

Q: What about the “fennel embryo formation (microspore embryogenesis)” value (media change after 72 h to a lower sucrose concentration and removal of the EBR) of the same compound?
A: stimulatory
